From patent publication US10829501B2 (BRISTOL-MYERS SQUIBB COMPANY, priority 2016, dated 2020)
Counter-ions that a name gives are not always drawn.
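Also: rho kinase reaction read by separating phosphorylated from unphosphorylated peptide on chip, with inhibition of kinase activity computed per concentration across a dose-response series.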

What follows are molecules tested against ROCK2 (Homo sapiens, UniProt O75116) (assay: ROCK2 kinase inhibition assay (LABCHIP 3000 Reader, FITC peptide substrate)). Conditions: not given.
Sequence of ROCK2 (O75116 whole entry, species assumed): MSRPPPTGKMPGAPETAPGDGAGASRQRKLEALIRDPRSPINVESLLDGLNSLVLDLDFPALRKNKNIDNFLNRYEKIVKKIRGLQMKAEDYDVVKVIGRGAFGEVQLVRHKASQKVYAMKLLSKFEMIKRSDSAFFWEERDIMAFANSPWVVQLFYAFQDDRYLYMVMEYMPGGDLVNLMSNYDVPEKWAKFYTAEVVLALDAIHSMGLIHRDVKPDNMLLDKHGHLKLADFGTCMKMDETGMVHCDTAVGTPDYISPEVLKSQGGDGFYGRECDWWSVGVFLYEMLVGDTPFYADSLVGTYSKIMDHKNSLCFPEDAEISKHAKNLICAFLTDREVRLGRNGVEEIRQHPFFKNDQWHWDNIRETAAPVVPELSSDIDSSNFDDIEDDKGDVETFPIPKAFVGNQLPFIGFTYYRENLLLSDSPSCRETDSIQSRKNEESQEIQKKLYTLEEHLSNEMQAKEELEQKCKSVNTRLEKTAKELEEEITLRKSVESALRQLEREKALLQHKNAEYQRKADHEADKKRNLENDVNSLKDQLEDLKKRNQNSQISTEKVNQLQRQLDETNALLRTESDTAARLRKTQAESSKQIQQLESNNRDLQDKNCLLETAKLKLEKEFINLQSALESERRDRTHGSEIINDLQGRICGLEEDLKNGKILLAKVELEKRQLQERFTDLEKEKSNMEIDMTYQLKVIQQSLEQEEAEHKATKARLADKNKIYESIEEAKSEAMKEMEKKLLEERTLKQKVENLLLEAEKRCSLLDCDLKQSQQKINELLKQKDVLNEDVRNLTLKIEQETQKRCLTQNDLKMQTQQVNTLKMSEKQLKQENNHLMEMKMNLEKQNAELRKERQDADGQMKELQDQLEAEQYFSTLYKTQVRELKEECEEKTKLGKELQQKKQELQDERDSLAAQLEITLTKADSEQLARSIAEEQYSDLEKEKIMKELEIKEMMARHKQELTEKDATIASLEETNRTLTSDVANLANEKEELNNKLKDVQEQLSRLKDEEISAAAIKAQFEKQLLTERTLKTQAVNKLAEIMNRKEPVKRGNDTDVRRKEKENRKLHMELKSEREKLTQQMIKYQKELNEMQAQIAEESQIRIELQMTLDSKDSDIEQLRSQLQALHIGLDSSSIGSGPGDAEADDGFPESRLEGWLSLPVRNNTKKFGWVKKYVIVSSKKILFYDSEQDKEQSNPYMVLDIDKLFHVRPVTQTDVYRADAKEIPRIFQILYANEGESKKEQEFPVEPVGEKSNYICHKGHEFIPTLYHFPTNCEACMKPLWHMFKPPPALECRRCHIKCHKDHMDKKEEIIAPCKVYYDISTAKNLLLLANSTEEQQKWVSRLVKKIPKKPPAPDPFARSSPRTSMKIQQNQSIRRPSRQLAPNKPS
Cn1nc(C(=O)NC2CC3(C2)CC(Oc2ncccc2C(N)=O)C3)cc1-c1ccccc1 (stereo not shown) [Example 396] was tested, and the IC50 was 5 to 50 nM. NC(=O)c1cccnc1OC1CC2(CC(NC(=O)c3cnn(-c4ccccc4Cl)c3)C2)C1 (stereo not shown) [Example 397] was tested, and the IC50 was 5 to 50 nM. For COc1ccccc1-n1cc(C(=O)NC2CC3(C2)CC(Oc2ncccc2C(N)=O)C3)cn1 (stereo not shown) [Example 398], the IC50 was 5 to 50 nM. Cc1c(C(=O)NC2CC3(C2)CC(Oc2ncccc2C(N)=O)C3)cnn1-c1cccc(C#N)c1 (stereo not shown) [Example 399] gave an IC50 of 50 to 250 nM. In the case of [H][C@]1(Oc2ncccc2C(N)=O)C[C@@]2(C[C@H](NC(=O)c3nn(C(C)(C)C#N)c4cc(-c5cnn(C)c5)ccc34)C2)C1 (stereo partly drawn) [Example 406, N-((aR)-6-((3-carbamoylpyridin-2-yl)oxy)spiro[3.3]heptan-2-yl)-1-(2-cyanopropan-2-yl)-6-(1-methyl-1H-pyrazol-4-yl)-1H-indazole-3-carboxamide, TFA], the IC50 is reported as < 5 nM. For [H][C@]1(Oc2ncccc2C(N)=O)C[C@@]2(C[C@H](NC(=O)c3nn(C(C)(C)C#N)c4cc(-c5cnn(C(F)F)c5)ccc34)C2)C1 (stereo partly drawn) [Example 407, N-((aR)-6-((3-carbamoylpyridin-2-yl)oxy)spiro[3.3]heptan-2-yl)-1-(2-cyanopropan-2-yl)-6-(1-(difluoromethyl)-1H-pyrazol-4-yl)-1H-indazole-3-carboxamide, TFA], the IC50 was < 5 nM. For [H][C@]1(Oc2ncccc2C(N)=O)C[C@@]2(C[C@H](NC(=O)c3nn(C(C)(C)C(N)=O)c4cc(-c5cnn(C)c5)ccc34)C2)C1 (stereo partly drawn) [Example 408, 1-(1-amino-2-methyl-1-oxopropan-2-yl)-N-((aR)-6-((3-carbamoylpyridin-2-yl)oxy)spiro[3.3]heptan-2-yl)-6-(1-methyl-1H-pyrazol-4-yl)-1H-indazole-3-carboxamide, TFA], the IC50 was 5 to 50 nM. With CC(C)(C(N)=O)n1nc(C(=O)N[C@H]2CC3(C2)C[C@H](Oc2ncccc2C(N)=O)C3)c2ccc(-c3cnn(C(F)F)c3)cc21 (stereo partly drawn) [Example 409, 1-(1-amino-2-methyl-1-oxopropan-2-yl)-N-((aR)-6-((3-carbamoylpyridin-2-yl)oxy)spiro[3.3]heptan-2-yl)-6-(1-(difluoromethyl)-1H-pyrazol-4-yl)-1H-indazole-3-carboxamide, TFA] the IC50 was < 5 nM. Work on [H][C@]1(Oc2ncccc2C(N)=O)C[C@@]2(C[C@H](NC(=O)c3nn(C(C)(C)C(N)=O)c4cc(OCCC(F)(F)F)ccc34)C2)C1 (stereo partly drawn) [Example 410, 1-(1-amino-2-methyl-1-oxopropan-2-yl)-N-((aR)-6-((3-carbamoylpyridin-2-yl)oxy)spiro[3.3]heptan-2-yl)-6-(3,3,3-trifluoropropoxy)-1H-indazole-3-carboxamide, TFA] yielded an IC50 of 5 to 50 nM. [H][C@]1(Oc2ncccc2C(N)=O)C[C@@]2(C[C@H](NC(=O)c3nn(C(C)(C)C#N)c4cc(OCCC(F)(F)F)ccc34)C2)C1 (stereo partly drawn) [Example 411, N-((aR)-6-((3-carbamoylpyridin-2-yl)oxy)spiro[3.3]heptan-2-yl)-1-(2-cyanopropan-2-yl)-6-(3,3,3-trifluoropropoxy)-1H-indazole-3-carboxamide, TFA] showed an IC50 of 5 to 50 nM. Work on CC(C)(O)COc1ccc2c(C(=O)N[C@H]3CC4(C3)C[C@H](Oc3ncccc3C(N)=O)C4)nn(C(C)(C)C(N)=O)c2c1 (stereo partly drawn) [Example 412, 1-(1-amino-2-methyl-1-oxopropan-2-yl)-N-((aR)-6-((3-carbamoylpyridin-2-yl)oxy)spiro[3.3]heptan-2-yl)-6-(2-hydroxy-2-methylpropoxy)-1H-indazole-3-carboxamide, TFA] yielded an IC50 of 5 to 50 nM. NC(=O)c1cccnc1O[C@H]1CC2(C[C@H](NC(=O)c3cnn4cc(OCC5(O)CC(F)(F)C5)ccc34)C2)C1 (stereo partly drawn) [Example 413, N-((aR)-6-((3-carbamoylpyridin-2-yl)oxy)spiro[3.3]heptan-2-yl)-6-((3,3-difluoro-1-hydroxycyclobutyl)methoxy)pyrazolo[1,5-a]pyridine-3-carboxamide, TFA] was tested, and the IC50 was 5 to 50 nM. NC(=O)c1cccnc1O[C@H]1CC2(C[C@H](NC(=O)c3cnn4c(C5CC5)c(OCC5(O)CC(F)(F)C5)ccc34)C2)C1 (stereo partly drawn) [Example 415, N-((aR)-6-((3-carbamoylpyridin-2-yl)oxy)spiro[3.3]heptan-2-yl)-7-cyclopropyl-6-((3,3-difluoro-1-hydroxycyclobutyl)methoxy)pyrazolo[1,5-a]pyridine-3-carboxamide, TFA] was tested, and the IC50 was < 5 nM. For CN(C)Cc1nc(C(=O)N[C@H]2CC3(C2)C[C@H](Oc2ncccc2C(N)=O)C3)c2ccc(OCc3ccccc3)cn12 (stereo partly drawn) [Example 416, 6-(benzyloxy)-N-((aR)-6-((3-carbamoylpyridin-2-yl)oxy)spiro[3.3]heptan-2-yl)-3-((dimethylamino)melhyl)imidazo[1,5-a]pyridine-1-carboxamide, TFA], the IC50 was 5 to 50 nM. NC(=O)c1cccnc1OC1CC2(CC(NC(=O)c3cnc(-c4ccc(S(=O)(=O)C5CC5)cc4)s3)C2)C1 [Example 417, N-((aR)-6-((3-carbainoylpyridin-2-yl)oxy)spiro[3.3]heptan-2-yl)-2-(4-(cyclopropylsulfonyl)phenyl)thiazole-5-carboxamide, TFA] was tested, and the IC50 was 5 to 50 nM. For N#Cc1ccc(-c2ncc(C(=O)NC3CC4(C3)CC(Oc3ncccc3C(N)=O)C4)s2)cc1 [Example 418, N-((aR)-6-((3-carbamoylpyridin-2-yl)oxy)spiro[3.3]heptan-2-yl)-2-(4-cyanophenyl)thiazole-5-carboxamide, TFA], the IC50 was 5 to 50 nM. With CNC(=O)c1ccc(-c2ncc(C(=O)NC3CC4(C3)CC(Oc3ncccc3C(N)=O)C4)s2)cc1F [Example 419, N-((aR)-6-((3-carbamoylpyridin-2-yl)oxy)spiro[3.3]heptan-2-yl)-2-(3-fluoro-4-(methylcarbamoyl)phenyl)thiazole-5-carboxamide, TFA] the IC50 was 50 to 250 nM. N#Cc1cccc(-c2ncc(C(=O)NC3CC4(C3)CC(Oc3ncccc3C(N)=O)C4)s2)c1 [Example 420, N-((aR)-6-((3-carbamoylpyridin-2-yl)oxy)spiro[3.3]heptan-2-yl)-2-(3-cyanophenyl)thiazole-5-carboxamide, TFA] showed an IC50 of 5 to 50 nM.

Same assay, conditions: read-out: ROCK2 Activity (ROCK2 IC50); 5 μM ATP, 1.5 μM peptide substrate, pH 7.5
COc1ccc(-n2ncc(C(=O)N[C@H]3CC4(C3)C[C@H](Oc3ncccc3C(N)=O)C4)c2C)cn1 (stereo partly shown) [Example 400] showed an IC50 of 5 to 50 nM. CC(C)(C#N)n1nc(C(=O)NC2CC3(C2)CC(Oc2ncccc2C(N)=O)C3)c2ccc(F)cc21 [Example 401, N-((aR)-6-((3-carbamoylpyridin-2-yl)oxy)spiro[3.3]heptan-2-yl)-1-(2-cyanopropan-2-yl)-6-fluoro-1H-indazole-3-carboxamide, TFA] was tested, and the IC50 was < 5 nM. With CC(C)(C(N)=O)n1nc(C(=O)NC2CC3(C2)CC(Oc2ncccc2C(N)=O)C3)c2ccc(F)cc21 [Example 402, 1-(1-amino-2-methyl-1-oxopropan-2-yl)-N-((aR)-6-((3-carbamoylpyridin-2-yl)oxy)spiro[3.3]heptan-2-yl)-6-fluoro-1H-indazole-3-carboxamide, TFA] the IC50 was 5 to 50 nM. Work on CC(C)(C#N)n1nc(C(=O)NC2CC3(C2)CC(Oc2ncccc2C(N)=O)C3)c2ccc(Br)cc21 [Example 403, 6-bromo-N-((aR)-6-((3-carbamoylpyridin-2-yl)oxy)spiro[3.3]heptan-2-yl)-1-(2-cyanopropan-2-yl)-1H-indazole-3-carboxamide, TFA] yielded an IC50 of 5 to 50 nM. Cn1cc(-c2ccc3c(C(=O)NC4CC5(C4)CC(Oc4ncccc4C(N)=O)C5)nn(CC4(O)CC(F)(F)C4)c3c2)cn1 [Example 404, N-((aR)-6-((3-carbamoylpyridin-2-yl)oxy)spiro[3.3]heptan-2-yl)-1-((3,3-difluoro-1-hydroxycyclobutyl)methyl)-6-(1-methyl-1H-pyrazol-4-yl)-1H-indazole-3-carboxamide, TFA] gave an IC50 of 5 to 50 nM. With Cn1cc(-c2ccc3c(C(=O)NC4CC5(C4)CC(Oc4ncccc4C(N)=O)C5)nn(CC4(O)CCC4)c3c2)cn1 [Example 405, N-((aR)-6-((3-carbamoylpyridin-2-yl)oxy)spiro[3.3]heptan-2-yl)-1-((1-hydroxycyclobutyl)methyl)-6-(1-methyl-1H-pyrazol-4-yl)-1H-indazole-3-carboxamide, TFA] the IC50 was < 5 nM. Work on NC(=O)c1cccnc1OC1CC2(CC(NC(=O)c3nc(Br)n4ccccc34)C2)C1 [Example 421, 3-bromo-N-((aR)-6-((3-carbamoylpyridin-2-yl)oxy)spiro[3.3]heptan-2-yl)imidazo[1,5-a]pyridine-1-carboxamide] yielded an IC50 of 5 to 50 nM. For CN1CCN(c2cc(C(=O)NC3CC4(C3)CC(Oc3ncccc3C(N)=O)C4)cc(C(F)(F)F)c2)CC1 [Example 422, 2-(((aR)-6-(3-(4-methylpiperazin-1-yl)-5-(trifluoromethyl)benzamido)spiro[3.3]heptan-2-yl)oxy)nicotinamide], the IC50 was 5 to 50 nM. With CC(C)(C)c1cccc(C(=O)NC2CC3(C2)CC(Oc2ncccc2C(N)=O)C3)c1 [Example 423, 2-(((aR)-6-(3-(tert-butyl)benzamido)spiro[3.3]heptan-2-yl)oxy)nicotinamide] the IC50 was 5 to 50 nM. Cn1cc2c(C(=O)NC3CC4(C3)CC(Oc3ncccc3C(N)=O)C4)cc(Br)cc2n1 [Example 424, 6-bromo-N-((aR)-6-((3-carbamoylpyridin-2-yl)oxy)spiro[3.3]heptan-2-yl)-2-methyl-2H-indazole-4-carboxamide] showed an IC50 of 5 to 50 nM. Molecule Cn1ncc2c(C(=O)NC3CC4(C3)CC(Oc3ncccc3C(N)=O)C4)cc(Br)cc21 [Example 425, 6-bromo-N-((aR)-6-((3-carbamoylpyridin-2-yl)oxy)spiro[3.3]heptan-2-yl)-1-methyl-1H-indazole-4-carboxamide] has an IC50 of 5 to 50 nM. NC(=O)c1cccnc1OC1CC2(CC(NC(=O)c3cc(C(F)(F)F)cc4c3NC(=O)OC4)C2)C1 [Example 426, N-((aR)-6-((3-carbamoylpyridin-2-yl)oxy)spiro[3.3]heptan-2-yl)-2-oxo-6-(trifluoromethyl)-1,4-dihydro-2H-benzo[d][1,3]oxazine-8-carboxamide] showed an IC50 of 5 to 50 nM. NC(=O)c1cccnc1OC1CC2(CC(NC(=O)c3cc(Br)cc(C(F)(F)F)c3)C2)C1 [Example 427, 2-(((aR)-6-(3-bromo-5-(trifluoromethyl)benzamido)spiro[3.3]heptan-2-yl)oxy)nicotinamide] was tested, and the IC50 was 5 to 50 nM.
